# Experimental data as given in ChEMBL document CHEMBL3817740, “Recent developments in SAR visualization” (Medchemcomm, 2016).
# pKi: −log10 of the molar value.
# Biological target: Histamine H4 receptor (Homo sapiens, UniProt Q9H3N8)
# Assay: Inhibition of histamine H4 receptor (unknown origin)
row,pKi,SMILES
1,6.80,CN[C@H]1CCN(c2nc(N)nc3c2CCC3)C1
2,6.45,CN[C@H]1CCN(c2nc(N)nc(C)c2C)C1
3,9.00,CN[C@H]1CCN(c2nc(N)nc3c2oc2ccc(C(C)(F)F)cc23)C1
4,8.47,CN[C@H]1CCN(c2nc(N)nc3c2oc2ccccc23)C1
